Experiments:
[1] = system: patients with advanced solid tumors; test: Phase I dose escalation Arm A: DOC every 21 days plus weekly erlotinib days 2, 9, 16; format: in vivo, human
Description: (§1) One explanation is antagonism due to TKI-induced G1 arrest, reducing cell cycle phase-dependent activity of chemotherapy (see FIG. 1). We hypothesized that pharmacodynamic separation by intermittent delivery of HER1/EGFR TKI with chemotherapy might increase efficacy.
(§2) Erlotinib (TARCEVA™) was obtained from OSI Pharmaceuticals, Inc. Melville, N.Y.). Docetaxel (TAXOTERE®) is manufactured and sold by Aventis Pharmaceuticals Inc.

[2] = system: patients with advanced solid tumors; test: Phase I dose escalation Arm B: DOC every 21 days plus erlotinib days 2-16; format: in vivo, human
Description: as §1, §2

[3] = system: NSCLC; conditions: first-line, in combination with standard chemotherapy, NSCLC phase III; cited from earlier work
[4] = system: advanced, treatment-refractory NSCLC; conditions: monotherapy, phase III; cited from earlier work

Row | Structure (SMILES) | Arm A MTD, DOC ([1]; IV every 21 days, combined with weekly erlotinib 600 mg) | Arm B MTD, DOC ([2]; IV every 21 days, combined with erlotinib 200 mg day 2-16) | Arm A MTD, erlotinib ([1]; weekly (days 2, 9, 16), combined with DOC 70 mg/m^2) | Arm B MTD, erlotinib ([2]; day 2-16, combined with DOC 70 mg/m^2) | Survival [3] | Survival [4]
1 | CC(=O)O[C@@]12CO[C@@H]1C[C@H](O)[C@@]1(C)C(=O)[C@H](O)C3=C(C)[C@@H](OC(=O)[C@H](O)[C@@H](NC(=O)OC(C)(C)C)c4ccccc4)C[C@@](O)([C@@H](OC(=O)c4ccccc4)[C@H]21)C3(C)C [DOC, docetaxel] | 70 mg/m^2 | 70 mg/m^2 | – | – | – | –
2 | C#Cc1cccc(Nc2ncnc3cc(OCCOC)c(OCCOC)cc23)c1 [erlotinib, [6,7-bis(2-methoxyethoxy)-4-quinazolin-4-yl]-(3-ethynylphenyl)amine] | – | – | 600 mg | 200 mg | did not improve survival | significantly prolonged survival
3 | COc1cc2ncnc(Nc3ccc(F)c(Cl)c3)c2cc1OCCCN1CCOCC1 [gefitinib] | – | – | – | – | did not improve survival | –

From patent publication US20070099856A1, “Combined treatment with docetaxel and an epidermal growth factor receptor kinase inhibitor using an intermittent dosing regimen” (priority 2005, published 2007)
